{
  "source": "patent US20150313913A1",
  "about": "“POSITIVE ALLOSTERIC MODULATORS OF THE GABA-A RECEPTOR IN THE TREATMENT OF AUTISM” (UNIVERSITY OF WASHINGTON THROUGH ITS CENTER FOR …, priority 2013, published 2015)",
  "key": {"BTBR mice [1]": {"tested_on": "BTBR mice", "experiment": "Elevated plus maze test", "format": "in vivo", "conditions": "0.05 mg/kg", "procedure": "(§1) The test was performed as previously described (Han et al., 2012). The maze used in this study has two closed arms (5.1×30 cm) surrounded by 20-cm high non-transparent walls and two open arms (5.1×30 cm). During the 10 min of trial, times spent in closed, center, and open arms, and total distance traveled during the trial were measured by the video-tracking software (EthoVision XT 8.5, Noldus Technology)."}, "C57BL/6J mice [2]": {"tested_on": "C57BL/6J mice", "experiment": "Elevated plus maze test", "format": "in vivo", "conditions": "low doses of clonazepam", "procedure": "as §1"}, "Scn1a+/− mice": {"tested_on": "Scn1a+/− mice", "experiment": "Contextual fear-conditioning test", "format": "in vivo", "conditions": "single i.p. 0.0625 mg/kg 30 min before training, listed as CLZ", "description": "(§2) The contextual fear-conditioning chamber was a square arena (25×25 cm) with clear PLEXIGLAS™ walls and a metal grid floor connected to a circuit board that delivered shocks to the metal grid (COULBOURN INSTRUMENTS™). An analog camera was attached on top of the chamber. The camera and the circuit board were connected to a personal computer, and its software (FREEZE FRAME™ 2.0, ACTIMETRICS™) controlled the circuit and recorded the data. The chamber was cleaned with 70% ethanol and wiped with paper towels before each session. In the habituation session, a test mouse was placed in the chamber and allowed to explore for 2 min^66-69. Immediately after habituation, the test mouse received a single mild foot shock (2 s, 0.5 mA). After staying in the chamber one more min, the mouse was removed from the chamber. For the 30-min short-term memory test, the mouse was returned to the context 30 min after the end of the training session. […] The movement of mice was also recorded by a USB webcam (LIFECAM™ HD-6000, MICROSOFT™) and PC-based video capture software (WINAVI™ Video Capture, ZJ MEDIA DIGITAL TECHNOLOGY™) for 2 min. The recorded video file was further analyzed by off-line video tracking software (ETHOVISION™ XT 7.0, NOLDUS TECHNOLOGY™). The freezing scores were calculated by dividing the test session into 1 min bouts and averaging together all 2 min for each animal. […]"}, "wild-type mice": {"tested_on": "wild-type mice", "experiment": "Contextual fear-conditioning test", "format": "in vivo", "conditions": "0.0625 mg/kg, listed as CLZ", "description": "as §2"}, "[3]": {"conditions": "cited from earlier work"}, "BTBR mice [4]": {"tested_on": "BTBR mice", "experiment": "Open-field reciprocal social interaction test", "format": "in vivo", "conditions": "for nose-to-nose interaction with stranger mouse / total (reciprocal) social interaction with stranger mouse: low dose (0.05 mg/kg), Pre/CLZ/Post at one-week intervals, 0.05 mg/kg", "procedure": "(§3) A test mouse and an age- and gender-matched stimulus mouse with a mixed C57BL/6J×129 genetic background were introduced in an open field arena (50×50 cm). Mice were socially naïve with each other. The social interactions of mice were recorded by USB webcam (LifeCam HD-6000, Microsoft) and PC-based video capture software (WinAVI Video Capture, ZJ Media Digital Technology) for 10 min."}, "C57BL/6J mice [5]": {"tested_on": "C57BL/6J mice", "experiment": "Open-field reciprocal social interaction test", "format": "in vivo", "conditions": "same treatment", "procedure": "as §3"}},
  "note": "Entries after “also recorded” stand apart in the source; their conditions may differ.",
  "data": [
    {"smiles": "O=C1CN=C(c2ccccc2Cl)c2cc([N+](=O)[O-])ccc2N1", "note": "[Clonazepam]", "values": [
      {"measurement": "time in open arms (indicator of abnormally low anxiety)", "setting": "BTBR mice [1]", "value": "changed toward the values for C57BL/6J mice"},
      {"measurement": "sedation (total distance moved during elevated plus maze)", "setting": "BTBR mice [1]; BTBR and C57BL/6J mice (FIG. 43I)", "value": "did not cause sedation; also recorded: without sedation"},
      {"measurement": "anxiety-like behavior: avoidance of the open arms", "setting": "C57BL/6J mice [2]", "value": "little effect"},
      {"measurement": "short-term (30 min) and long-term (24 h) fear-associated contextual memory", "setting": "Scn1a+/− mice", "value": "complete reversal; also recorded: complete rescue"},
      {"measurement": "fear-associated contextual memory", "setting": "wild-type mice", "value": "unaffected; also recorded: no significant change"},
      {"measurement": "half-life", "setting": "[3]; in vivo", "value": "30 to 40", "unit": "h"},
      {"measurement": "half-life in vivo", "setting": "[3]; mouse washout experiment", "value": 12, "unit": "h"},
      {"measurement": "nose-to-nose interaction with stranger mouse", "setting": "BTBR mice [4]", "value": "significantly enhanced"},
      {"measurement": "total (reciprocal) social interaction with stranger mouse", "setting": "BTBR mice [4]", "value": "significantly enhanced"},
      {"measurement": "nose-to-nose interaction with stranger mouse", "setting": "BTBR mice [4]; listed as CLZ", "value": "reversibly increases"},
      {"measurement": "total (reciprocal) social interaction with stranger mouse", "setting": "BTBR mice [4]; listed as CLZ", "value": "reversibly increases"},
      {"measurement": "stereotyped circling behavior in open field with stranger mouse", "setting": "BTBR mice [4]; low dose (FIG. 8C)", "value": "reduces"},
      {"measurement": "social interaction and stereotyped behavior", "setting": "C57BL/6J mice [5]", "value": "unaffected"},
      {"measurement": "social interaction and stereotyped behavior", "setting": "C57BL/6J mice [5]; listed as CLZ", "value": "no significant effect"}
    ]}
  ]
}
